Laboratory results taken from US20050026836A1, “Composition for the treatment of damaged tissue” (priority 1999, published 2005).
Values joined by “and” are separate entries in the source; they are usually repeats but may differ in a detail not shown here. Equal entries are not always repeated. Where two headings read alike, the source gives them in different places.

Columns and labels:
Plasmin = biological target: T1, Plasmin (Homo sapiens, UniProt P00747); experiment: Plasmin chromogenic inhibition assay (Chromozym-PL); format: biochemical; settings: 100 μM compound
T1 construct: Human plasmin, 2 mg/vial (Quadratech, 810665) was reconstituted to 1 mg/ml in buffer; purchased Quadratech 810665
Protocol: Plasmin inhibition is assayed by incubating human plasmin at 0.7 μg/ml with 0.2 mM Chromozym-PL (substrate) and various concentrations of inhibitors in uPA assay buffer. Pre-incubation is carried out as for uPA and the incubation is performed at 37° C. for 30 mins.
The incubation was performed at 37° C. for 30 mins. Percentage inhibition was calculated.

human tPA = biological target: T2, human tPA (Homo sapiens, UniProt P00750); experiment: tPA chromogenic inhibition assay (S2288); format: biochemical; settings: 100 μM compound
T2 construct: Human tPA (one chain) 10 μg/vial (Chromogenix, 821157-039/0); purchased Chromogenix 821157-039/0
Protocol: The method for analysis of tPA inhibition is similar to that for uPA inhibition. The assay utilises final concentrations of tPA of 0.4 µg/ml with 0.1 mg/ml tPA stimulator, 0.4 mM S2288 (substrate) and various concentrations of inhibitors, made up in uPA assay buffer. Pre-incubation is carried out with compound, enzyme and enzyme stimulator, as for uPA, prior to the incubation with substrate. Incubation time is 60 minutes at performed at 37° C. Data analysis is identical to that described above for uPA, using a known Km for tPA of 250 μM.
The incubation was performed at 37° C. for 60 mins. Percentage inhibition was calculated.

uPA [1] = biological target: T3, uPA (Homo sapiens, UniProt P00749); experiment: biochemical; settings: for Ki: UPA
Protocol: A pre-incubation of compound with enzyme is carried out for 15 minutes at 37° C., followed by substrate addition and further incubation for 30 minutes at the same temperature. The final assay volume is 200[…]1.
uPA (urokinase type plasminogen activator) inhibition was assayed by incubating human uPA at 33 IU/ml in 75 mM Tris, pH 8.1, 50 mM NaCl with 180 μM S2444 (substrate) and various concentrations of inhibitors. For the primary screen results, the incubation was performed at 37° C. for 30 minutes.
These assays were carried out in a 96-well plate. […] The incubation was performed after an initial pre-incubation at 37° C. for 15 mins and absorbance was read at 405 nm at 0 mins and at the end of the incubation on a […]ax microplate reader (Molecular Devices Corporation), using SOFTMaxPRO software.

uPA and MMP-3 = experiment: Inhibition of uPA and MMP-3-mediated KGF-2 degradation (dual protease assay); format: biochemical, human; settings: uPA and MMP-3 together / KGF-2; inhibitors used (100 μM), alone or in combination
Protocol: (§1) The extent of proteolysis of the growth factors was assayed by incubating TGF-β2, VEGF, PDGF-BB and KGF-2 with the proteases uPA, plasmin, MMP-3 and MMP-13 in assay buffer (either uPA/plasmin buffer, 50 mM tris-HCl, pH 7.4 or MMP assay buffer, 100 mM Tris, 10 mM NaCl, 10 mM CaCl2, 0.05% (w/v) Brij 35, pH 7.5). […] The growth factors were added to the incubation mixture at a final concentration of […], unless otherwise stated.
(§2) The effects of uPA were determined by incubation at a typical final concentration of 25 μg/ml (1500 U/ml) with each growth factor. The effects of plasmin were determined at a typical final concentration of 0.1 mg/ml by incubation with the individual growth factors in assay buffer. MMP-3 and -13 were incubated at a typical final concentration of 10 nM with the growth factors in assay buffer. Dual protease assays carried out with uPA and MMP-3 together were performed in 100 mM Tris, […], 10 mM CaCl2, 0.05% (w/v) Brij 35, pH 7.5. All incubations were performed in siliconised tubes (Sigma Aldrich, UK).
The inhibitors used in these experiments were compound 9454, compound 9470 and compound 5214. These were dissolved in DMSO at a concentration of 10 mM. Typical final concentrations for these inhibitors were in the range of 100 μM to 10 nM. Aprotinin was dissolved in the Tris buffer at 10 mg/ml and used at a typical concentration of 10 μg/ml. […]

uPA [2] = biological target: T3, uPA; experiment: biochemical; settings: read-out: Percentage inhibition of proteolysis
Protocol: as §1, §2
The inhibitors used in these experiments were compound 9454, compound 9470 and compound 5214. These were dissolved in DMSO at a concentration of 10 mM. Typical final concentrations for these inhibitors were in the range of 100 μM to 10 nM. Aprotinin was dissolved in the Tris buffer at 10 mg/ml and used at a typical concentration of 10 μg/ml.
All assays were carried out at 37° C. and enzymes were pre-incubated for 15 minutes with or without inhibitor as appropriate, prior to addition of growth factors. After the addition of growth factor, the incubation mixtures were divided into aliquots in siliconised tubes for each time point used. Incubations were carried out over a time course typically of 24 hours, unless otherwise stated. They were stopped by the addition of an equal volume of 2×Novex reducing loading buffer (final concentration 1.09 M glycerol, 141 mM Tris-base, 106 mM Tris-HCl, 73 mM lithium dodecyl sulphate (LDS), 0.5 mM ethylenediaminetetraacetic acid, 0.22 mM Serva Blue G250, 0.175 mM Phenol Red, pH 8.5) and samples prepared for electrophoresis by incubating at 70° C. for 10 minutes.
LDS-PAGE was performed using the NOVEX Xcell II Mini-Cell gel apparatus (Groningen, Holland) using a variation on the method of Laemmli (1970). Equal volumes of samples were loaded onto NuPage 4-12% Bis-tris gels with molecular weight markers (SeeBlue Plus2 Pre-stained Standards). Molecular weight determination was performed by comparison of bands with markers of molecular weight 3, 6, 14, 17, 28, 38, 49, 62, 98 and 188 kDa. […]

[3] = biological target: T4, catalytic domain human MMP-14 (Homo sapiens, UniProt P50281); experiment: MMP-14 fluorogenic inhibition assay; format: biochemical; settings: read-out: Calculated Ki(nM) MMP-14
T4 construct: made in house
Protocol: (§3) All enzymes were pre-activated at 37° C. with aminophenylmercuric acetate (APMA) or trypsin before being made up to the final concentrations used in the assay. MMP-1 (30 nM) was activated with 0.93 mM APMA for 20 minutes, MMP-2 (30 nM) was activated with 1.32 mM APMA for 1 hour, MMP-3 (1010 nM) was activated with 1.81 mM APMA for 3 hours or heat activated at 55° C. for three hours, MMP-9 (100 nM) was activated with 2 mM APMA for 2 hours, human MMP-13 (100 nM) was activated with 2 mM APMA for 2 hours, and MMP-14 (900 nM) was activated with 0.9 ng/ml trypsin for 25 minutes, followed by the addition of 4.5 ng/ml trypsin inhibitor.
(§4) For MMP-1, the assay buffer used was 50 mM Tris, 200 mM NaCl, 5 mM CaCl2, 20 μM ZnCl2, 0.05% (w/v) Brij 35, pH 7.5. […] For MMP-13, the assay buffer used was 50 mM Tris, pH 7.5, 200 mM NaCl, 5 mM CaCl2, […] and 0.02% (w/v) Brij 35. For MMP-14, the assay buffer used was 50 mM Tris, 100 mM NaCl, 10 mM CaCl2, 0.25% (w/v) Brij 35, pH 7.5.
MMP-14 inhibition was assayed by incubating activated catalytic domain human MMP-14 at 1 nM in assay buffer with 10 μM Mca-Pro-Leu-Gly-Leu-Dpa-Ala-Arg-NH2 and six concentrations of inhibitor. The incubation was performed at 37° C. for 60 minutes.
(§5) The final assay concentrations of inhibitors used in the MMP-1 assays to determine Ki were 50, 40, 30, 20, 10 and 5 μM. For MMP-2, the final assay concentrations of inhibitors used were 1000, 800, 600, 400, 200 and 100 nM. For MMP-3, the final assay concentrations of inhibitors used were 5, 4, 3, 2, 1 and 0.5 nM. For MMP-9 and MMP-14, the final assay concentrations of inhibitors used were 5, 4, 3, 2, 1 and 0.5 μM.
(§6) All assays were carried out in a black 96-well plate with a final volume of 100 μl in each well. Inhibitors were dissolved in dimethylsulphoxide (DMSO) to 1 mM. […] For MMP-2, MMP-3, MMP-9 and MMP-14, fluorescence was read every 2 minutes at […] and 393 nm γem for 1 hour using a Fluorostar fluorimeter (BMG) with BIOLISE software. For MMP-1 assays, the filters used were 355 nm γex and 440 nm γem; fluorescence was read every 2 minutes for 1 hour. […]

[4] = system: circular full thickness lesions; experiment: Normal wound healing in pigs, full thickness lesions; format: in vivo; settings: 0.3% w/v formulation in CMC hydrogel, 1 ml topically daily, pig
Protocol: The experiment was performed in 3 female SPF pigs (crossbreed of Danish country, Duroc and Yorkshire). At start of the acclimatisation period the body weight of the animals was about 30 kg. The lesions were established on day 1. The animals were anaesthetised with Stresnil® Vet. Janssen, Belgium (40 mg azaperone/ml, 1 ml/10 kg), and Atropin DAK, Denmark (1 mg atropine/ml, 0.05 ml/kg), given as a single intramuscular injection followed by i.v. injection of Hypnodil® Janssen, Belgium (50 mg metomidate/ml, 1-2 ml). Eight circular full thickness lesions (diameter 20 mm) were made on the prepared area, four on each side of the spine. The lesions were numbered 1 (most cranial) to 4 (most caudal) on the left side of the animal, and 5 (most cranial) to 8 (most caudal) on the right side of the animal. After surgery and daily thereafter, the test articles were applied as follows: The dosing volume of each dosing was 1 ml. The dressings were changed on a daily basis. Each lesion was observed daily. The outlines of the wound edge and the epithelial edge will be drawn on sterile transparent sheets, and the areas contained inside the edges were measured planimetrically. The measurement of areas was performed by Scan Beam […] processed to give group mean values and standard deviations where appropriate. Possible outliers were identified, too. Each variable was tested for normality by the Shapiro-Wilk method. In case of normal distribution, two-way analysis of variance was carried out for the variable with the factor: animal and treatment, and if significant difference were detected, possible intergroup differences were assessed using the least-squares means. Otherwise the possible intergroup differences were identified with Wilcoxon Rank-Sum test.

[5] = biological target: T5, catalytic domain of human MMP-9 (Homo sapiens, UniProt P14780); experiment: MMP-9 fluorogenic inhibition assay; format: biochemical; settings: read-out: Calculated Ki(nM) MMP-9
T5 sequence (P14780 with tags, fused parts or gaps DEL216-390 limits assumed): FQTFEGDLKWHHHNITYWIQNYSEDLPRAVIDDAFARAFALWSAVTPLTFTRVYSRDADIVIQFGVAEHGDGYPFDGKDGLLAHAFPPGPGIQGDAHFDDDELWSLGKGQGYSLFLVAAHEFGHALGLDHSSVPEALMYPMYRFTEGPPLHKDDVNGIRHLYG
Protocol: as §3, §4
MMP-2, MMP-3 and MMP-9 inhibition was assayed by incubating activated catalytic domain of human MMP-2, MMP-3 and MMP-9 at 1 nM in assay buffer with 5 μM substrate Mca-Arg-Pro-Lys-Pro-Tyr-Ala-Nva-Trp-Met-Lys(Dnp)-NH2, and six different concentrations of inhibitor. The incubation was performed at 37° C. for 60 minutes.
as §5
as §6, with “well.” for “well. Inhibitors were dissolved in dimethylsulphoxide (DMSO) to 1 mM.”

[6] = individual determinations, 100 µM
[7] = individual determinations, read-out: % inhibition at 100 μM
[8] = mean ± sem, read-out: % inhibition at 100 μM Mean ± sem

T2 sequence (P00750 36-562): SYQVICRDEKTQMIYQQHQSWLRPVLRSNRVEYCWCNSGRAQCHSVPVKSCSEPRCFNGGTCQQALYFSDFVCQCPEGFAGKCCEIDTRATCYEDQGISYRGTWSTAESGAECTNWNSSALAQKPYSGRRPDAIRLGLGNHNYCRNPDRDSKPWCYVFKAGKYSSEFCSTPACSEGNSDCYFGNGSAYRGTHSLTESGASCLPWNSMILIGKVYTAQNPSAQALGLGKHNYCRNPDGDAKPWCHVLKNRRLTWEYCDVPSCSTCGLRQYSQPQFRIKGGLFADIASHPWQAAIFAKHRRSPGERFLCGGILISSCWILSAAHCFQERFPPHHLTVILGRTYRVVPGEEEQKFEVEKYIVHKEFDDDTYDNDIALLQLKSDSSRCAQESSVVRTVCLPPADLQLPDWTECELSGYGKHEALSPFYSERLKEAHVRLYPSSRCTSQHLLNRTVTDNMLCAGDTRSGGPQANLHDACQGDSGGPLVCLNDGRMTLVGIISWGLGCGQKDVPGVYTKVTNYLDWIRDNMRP
T1 sequence (P00747 581-810 limits assumed): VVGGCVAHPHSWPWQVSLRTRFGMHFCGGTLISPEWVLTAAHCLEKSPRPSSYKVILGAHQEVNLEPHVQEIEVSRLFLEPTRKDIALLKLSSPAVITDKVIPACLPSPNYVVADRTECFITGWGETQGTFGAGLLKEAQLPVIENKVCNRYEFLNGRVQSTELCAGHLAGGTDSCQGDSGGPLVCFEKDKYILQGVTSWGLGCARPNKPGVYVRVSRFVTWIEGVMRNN
T1 sequence (P00747 97-580 partner limits assumed): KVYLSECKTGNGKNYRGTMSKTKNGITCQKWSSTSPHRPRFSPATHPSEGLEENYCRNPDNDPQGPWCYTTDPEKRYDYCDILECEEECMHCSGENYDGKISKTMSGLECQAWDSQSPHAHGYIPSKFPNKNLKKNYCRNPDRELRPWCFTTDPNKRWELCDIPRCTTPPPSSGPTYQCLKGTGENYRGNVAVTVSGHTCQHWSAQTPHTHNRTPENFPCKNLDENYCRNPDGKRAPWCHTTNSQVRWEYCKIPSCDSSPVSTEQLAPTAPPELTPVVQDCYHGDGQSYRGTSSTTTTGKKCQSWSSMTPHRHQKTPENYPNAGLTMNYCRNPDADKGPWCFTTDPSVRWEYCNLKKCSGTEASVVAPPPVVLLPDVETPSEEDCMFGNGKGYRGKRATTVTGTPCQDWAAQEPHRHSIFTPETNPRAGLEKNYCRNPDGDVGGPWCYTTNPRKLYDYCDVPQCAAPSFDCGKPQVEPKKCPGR

Structure (SMILES) | % inhibition at 100 μM (Plasmin; [6]) | inhibition at 100 µM (Plasmin; [7]) [%] | inhibition at 100 µM (Plasmin; [8]) [%] | % inhibition at 100 μM (human tPA; [6]) | inhibition at 100 µM (human tPA; [7]) [%] | inhibition at 100 µM (human tPA; [8]) [%] | Ki (uPA [1]; Calculated Ki (nM) Mean ± sem, mean ± sem) [nM] | Ki (uPA [1]; Calculated Ki (nM), individual determinations) | Potency as inhibitor of uPA (in words) (uPA [1]; from Table 1) | Percentage inhibition of proteolysis (uPA and MMP-3) | inhibition at 0.1 µM (uPA [2]) [%] | inhibition at 1 µM (uPA [2]) [%] | inhibition at 10 µM (uPA [2]) [%] | inhibition at 100 µM (uPA [2]) [%] | Ki [3] [nM] | Non-epithelialised area MEAN ([4]; DAY 8) | Non-epithelialised area MEAN ([4]; DAY 9) | Non-epithelialised area MEAN ([4]; DAY 10) | Non-epithelialised area MEAN ([4]; DAY 11) | Ki [5] [nM]
NC(N)=Nc1ncc(Cl)c2ccc(S(=O)(=O)N3CCCC3C(=O)O)cc12 (centres unmarked) [compound 5214] | 33% and 28% and 27% | 31 | 29.8 ± 1.38 | 47% and 50% | 38 | 45 ± 3.61 | 9.9 ± 0.76 | 11 nM and 9.6 nM and 7.8 nM | potent inhibitor of uPA | 38.6 | 17 | 76 | 83 | 91 |  |  |  |  |  | 
CNC(=O)[C@@H](Cc1ccccc1)NC(=O)C(CC(C)C)[C@H](CSc1cccs1)C(=O)NO (some centres unmarked) [compound 5719] |  |  |  |  |  |  |  |  |  |  |  |  |  |  | 3.68 | 294.0 | 248.0 | 210.1 | 148.9 | 0.47
